Several values for one entry are separate records, joined by “and”; a condition that tells them apart may be missing. Identical values can stand only once. Entries after “also recorded” stand apart in the source; their conditions may differ. Like-named read-outs stand apart in the source and are kept apart here. Where no end group is shown, it is not given here. [ ]: non-standard residue; d: D form. The star is where a group is joined. pNA = O=[N+]([O-])c1ccc(N*)cc1; Cbz = O=C(OCc1ccccc1)*

37 compounds from patent publication US6875851B1 (priority 1999, dated 2005) can be followed below.

In assay [1] the test system is PTP-A. Format: biochemical, P. gingivalis.
For assay [2], the system named is PTP-A. Format: biochemical, P. gingivalis. Particulars: enzyme:substrate 1:100, 3 hours or 24 hours, 200 mM HEPES, pH 7.5, 37° C.; for Cleavage site mediated by PTP-A: 1 μg PTP-A.
Assay [3] concerns DPP IV. The assay is described as follows: Cleavage specificity of DPP IV on synthetic peptides. In kind it is biochemical, P. gingivalis. Particulars: for Cleavage site mediated by DPP IV: same conditions as those used for PTP-A. The protocol: Enzyme Specificity—Peptides were incubated with 1 μg PTP-A at an enzyme:substrate molar ratio of 1:100 for 3 hours or 24 hours in 50 μl of 200 mM HEPES, pH 7.5, at 37° C., and the reaction stopped by acidification with trifluoroacetic acid. The samples were then subjected to reverse-phase high pressure liquid chromatography using a μBondapak C-18 column (3.9×300 mm) (Waters, Millford, Mass.) and an acetonitrile gradient (0-80% in 0.075% trifluoroacetic acid in 50 min). Each peak, detected at 220 nm, was collected, lyophilized, redissolved in 50% (volume/volume) methanol, 0.1% acetic acid and subjected to analysis by mass spectrometry.
Mass Spectrometry—A Finnigan MAT 95S, sector mass spectrometer (Finnigan MAT, Bremen, Germany) equipped with an electrospray source (ESI) was used operated essentially as described previously (Stenfors, C., et al., (1997) J. Biol. Chem. 272, 5747-5751). Peptides were identified by fitting of the obtained spectra to specific sequences using an Internet application program MsFit available at http://falcon.ludwig.ucl.ac.uk/msfit.html.

Assay [4] has as its system PTP-A. In kind it is biochemical, P. gingivalis. To be noted: for Residual activity of PTP-A, %: pH 7.6.
Assay [5] has as its system DPP IV. In kind it is biochemical, P. gingivalis. To be noted: pH 7.6.
Assay [6] relates to PTP-A. Format: biochemical, P. gingivalis. Particulars: 1 mM substrate, 0.2 M HEPES, pH 7.5 at 37° C.
Target sequence in this assay (Q7MUW6 81-732 limits assumed): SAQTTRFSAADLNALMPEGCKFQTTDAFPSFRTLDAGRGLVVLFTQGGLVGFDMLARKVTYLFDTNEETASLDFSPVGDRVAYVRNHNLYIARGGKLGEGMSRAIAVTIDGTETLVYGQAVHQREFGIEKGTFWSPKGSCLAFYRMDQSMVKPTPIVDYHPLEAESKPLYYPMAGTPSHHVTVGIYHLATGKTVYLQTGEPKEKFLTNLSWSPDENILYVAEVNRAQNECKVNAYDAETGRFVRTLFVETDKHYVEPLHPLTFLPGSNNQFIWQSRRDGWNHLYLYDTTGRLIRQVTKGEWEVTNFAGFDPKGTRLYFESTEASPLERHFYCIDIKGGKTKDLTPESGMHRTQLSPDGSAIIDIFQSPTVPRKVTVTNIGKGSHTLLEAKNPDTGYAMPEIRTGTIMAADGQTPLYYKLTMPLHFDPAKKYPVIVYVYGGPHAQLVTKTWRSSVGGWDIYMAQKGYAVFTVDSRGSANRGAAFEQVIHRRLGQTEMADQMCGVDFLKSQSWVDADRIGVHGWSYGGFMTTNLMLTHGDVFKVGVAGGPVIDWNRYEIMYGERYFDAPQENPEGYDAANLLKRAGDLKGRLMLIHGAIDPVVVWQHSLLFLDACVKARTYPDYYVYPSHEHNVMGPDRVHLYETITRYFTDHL
The next assay relates to P. gingivalis. In kind it is cell-based. To be noted: for P. gingivalis growth (OD600): 37° C.

In the case of albumin, the “Cleavage of protein by PTP-A (in words)” value with PTP-A [1] is on record as “absence of any proteolytic activity”.
Consider “H-Val-Glu-Pro-↓-Ile-Pro-Tyr (VEPIPY) [Peptide 10]”, for which, in the assay on PTP-A [2], the “Cleavage site mediated by PTP-A” value is given as “H-Val-Glu-Pro-↓-Ile-Pro-Tyr”.
On to “Ac-Val-Pro-Pro-Gly-Glu-Asp-Ser-Lys (Ac-VPPGEDSK) [Peptide 9]”, for which the “Cleavage of peptide by PTP-A (in words)” value in the assay on PTP-A [2] was “resistance to enzymatic hydrolysis”.
In the case of “H-Lys-Arg-Pro-Pro-Gly-Phe-Ser-Pro-Phe-Arg (KRPPGFSPFR; printed: Lys-Arg-Pro-Pro-Gly-Phe-Ser-Pro-Phe-Arg) [Peptide 3]”, the “Cleavage of peptide by PTP-A (in words)” value in the assay with PTP-A [2] is given as “significant exception”.
As to “H-Ala-Pro-↑-Val-Arg-Ser-Leu-Asn-Cys-Thr-Leu-Arg-Asp-Ser-Gln-Gln-Lys (APVRSLNCTLRDSQQK) [Peptide 24]”, the “Cleavage site mediated by DPP IV” value in the assay with DPP IV [3] was “H-Ala-Pro-↑-Val-Arg-Ser-Leu-Asn-Cys-”.
As for “H-Leu-Pro-↑-Asp-Leu-Asp-Ser-Ser-Leu-Ala-Ser-Ile-Gln-Glu-Leu-Leu-Ser-Pro-Gln-Glu-Pro-Pro-Arg-Pro-Pro-Glu-Ala (LPDLDSSLASIQELLSPQEPPRPPEA) [Peptide 20]”, in the assay on DPP IV [3], the “Cleavage by DPP IV (in words)” value is “found to cleave” and the “Cleavage site mediated by DPP IV” value is listed as “H-Leu-Pro-↑-Asp-Leu-Asp-Ser-Ser-Leu-Ala-”.
On to “H-Arg-Pro-Pro-↓-Gly-Phe-Ser-Pro-Phe-Arg (RPPGFSPFR) [Peptide 1]”, for which, in the assay on PTP-A [2], the “Cleavage site mediated by PTP-A” value is recorded as “H-Arg-Pro-Pro-↓-Gly-Phe-Ser-Pro-Phe-Arg”.
In the case of Val-Pro, the “Residual activity of PTP-A, %” value in the assay with PTP-A [4] is listed as 100%. In the assay on DPP IV [5], the “Residual activity of DPP IV, %” value came out at 1%.
In the case of “H-Arg-Pro-↑-Lys-Pro-↑-Gln-Gln-Phe-Phe-Gly-Leu-Met-NH2 (H-RPKPQQFFGLM-NH2) [Peptide 6]”, in the assay with DPP IV [3], the “Cleavage by DPP IV (in words)” value is recorded as “found to cleave” and the “Cleavage site mediated by DPP IV” value is “Pro-↑-Lys; also recorded: Pro-↑-Gln”.
As for H-Pro-pNA, the “Hydrolysis of chromogenic substrate by PTP-A” value (from here on “Hydrolysis”) in the assay with PTP-A [6] is “only H-Ala-Phe-Pro-pNA was hydrolyzed”.
Same read-out and setting: the same measure for Cbz-Gly-Pro-pNA: “only H-Ala-Phe-Pro-pNA was hydrolyzed”.
`CCN1C(=O)C=CC1=O` [N-Ethylmaleimide]: in the assay on PTP-A [4], the “Effect on PTP-A amidolytic activity (in words)” value (“Effect” below) was “not” and the “Residual activity of PTP-A, %” value is recorded as 98%. Further, the “Residual activity of DPP IV, %” value in the assay on DPP IV [5] was determined as 100%.
On to “H-Ala-Arg-Pro-↓-Ala-D-Lys-amide (H-ARPA[dK]-NH2; SMILES C[C@H](N)C(=O)N[C@@H](CCCNC(=N)N)C(=O)N1CCC[C@H]1C(=O)N[C@@H](C)C(=O)N[C@H](CCCCN)C(N)=O) [Peptide 12]”, for which, in the assay with PTP-A [2], the “Cleavage site mediated by PTP-A” value is “H-Ala-Arg-Pro-↓-Ala-D-Lys-amide”.
On to `O=S(=O)(F)Cc1ccccc1` [Phenylmethanesulfonyl fluoride], for which the “Effect” value in the assay with PTP-A [4] is “no effect at all”.
As for “H-Pro-Asn-Pro-↓-Asn-Gln-Gly-Asn-Phe-Ile (PNPNQGNFI) [Peptide 13]”, in the assay with PTP-A [2], the “Cleavage site mediated by PTP-A” value is “H-Pro-Asn-Pro-↓-Asn-Gln-Gly-Asn-Phe-Ile”.
In the case of interleukin 6: protein substrate, in the assay on PTP-A [1], the “Cleavage of protein by PTP-A (in words)” value is reported as “able to cleave a tripeptide”.
With “H-Val-Pro-Pro-↓-Gly-Glu-Asp-Ser-Lys-Glu-Val-Ala-Ala-Pro-His-Arg-Gln (VPPGEDSKEVAAPHRQ) [Peptide 7]”, the “Cleavage site mediated by PTP-A” value with PTP-A [2] is recorded as “H-Val-Pro-Pro-↓-Gly-Glu-Asp-Ser-Lys-Glu-”.
Consider H-Gly-Pro-pNA, for which the “Hydrolysis” value with PTP-A [6] is recorded as “only H-Ala-Phe-Pro-pNA was hydrolyzed”.
`O=c1oc(Cl)c(Cl)c2ccccc12` [3,4-dichloroisocoumarin]: in the assay with PTP-A [4], the “Effect” value is listed as “only a poor inhibitor” and the “Residual activity of PTP-A, %” value was determined as 200%. Besides, in the assay on DPP IV [5], the “Residual activity of DPP IV, %” value turned out to be 100%. Besides, the “Growth of P. gingivalis” value with P. gingivalis is “inhibits growth”.
As for “H-Arg-His-Pro-↓-Lys-Tyr-Lys-Thr-Glu-Leu (RHPKYKTEL) [Peptide 14]”, in the assay with PTP-A [2], the “Cleavage site mediated by PTP-A” value is given as “H-Arg-His-Pro-↓-Lys-Tyr-Lys-Thr-Glu-Leu”.
For the compound IGVHGWXYGGFMTINL [SEQ ID NO:24], the “Cleavage by DPP IV (in words)” value in the assay with DPP IV [3] is recorded as “found to cleave”.
Still for that read-out and setting: as for “NH2-SAQTTRFSAADLNALMP (H-SAQTTRFSAADLNALMP; listed as Porphyromonas gingivalis) [SEQ ID NO:23]”, the entry is “found to cleave”.
On to `CC(=O)N[C@@H](CC(C)C)C(=O)N[C@@H](CC(C)C)C(=O)N[C@H](C=O)CCCNC(=N)N` [Leupeptin], for which, in the assay on PTP-A [4], the “Effect” value is listed as “no effect at all” and the “Residual activity of PTP-A, %” value turned out to be 100%. The “Residual activity of DPP IV, %” value in the assay with DPP IV [5] is 20%.
Regarding `O=C(O)CN(CCN(CC(=O)O)CC(=O)O)CC(=O)O` [EDTA], the “Residual activity of PTP-A, %” value with PTP-A [4] is 100%. For the same compound, the “Residual activity of DPP IV, %” value in the assay with DPP IV [5] is on record as 100%.
As for “H-Arg-Gly-Pro-↓-Phe-Pro-Ile (RGPFPI) [Peptide 11]”, the “Cleavage site mediated by PTP-A” value in the assay with PTP-A [2] was “H-Arg-Gly-Pro-↓-Phe-Pro-Ile”.
Take gelatin: the “Cleavage of protein by PTP-A (in words)” value in the assay on PTP-A [1] is given as “absence of any proteolytic activity”.
Take “H-Val-Pro-Pro-↓-Gly-Glu-Asp-Ser-Lys (VPPGEDSK) [Peptide 8]”: the “Cleavage site mediated by PTP-A” value in the assay on PTP-A [2] is listed as “H-Val-Pro-Pro-↓-Gly-Glu-Asp-Ser-Lys”.
Take `NC(=O)CI` [Iodoacetamide]: in the assay with PTP-A [4], the “Effect” value is “stimulated enzyme amidolytic activity about two-fold” and the “Residual activity of PTP-A, %” value is reported as 100%. The “Residual activity of DPP IV, %” value with DPP IV [5] stood at 100%.
In the case of H-Ala-Phe-Pro-pNA, the “Hydrolysis” value with PTP-A [6] is “hydrolyzed”.
With “H-Ser-Pro-↑-Tyr-Ser-Ser-Asp-Thr-Thr (SPYSSDTT) [Peptide 23]”, the “Cleavage site mediated by DPP IV” value in the assay on DPP IV [3] is “H-Ser-Pro-↑-Tyr-Ser-Ser-Asp-Thr-Thr”.
With “H-Arg-Pro-Pro-↓-Gly-Phe (RPPGF) [Peptide 2]”, the “Cleavage site mediated by PTP-A” value in the assay with PTP-A [2] is given as “H-Arg-Pro-Pro-↓-Gly-Phe”.
Turning to Cbz-Ala-Pro-pNA, in the assay with PTP-A [6], the “Hydrolysis” value was “only H-Ala-Phe-Pro-pNA was hydrolyzed”.
Turning to `c1cnc2c(c1)ccc1cccnc12` [1,10-orthophenanthroline], the “Residual activity of PTP-A, %” value in the assay on PTP-A [4] was 93% and 100%. In addition, the “Residual activity of DPP IV, %” value with DPP IV [5] was found to be 100%.
“α1-proteinase inhibitor: Human plasma inhibitor”: the “Effect” value in the assay with PTP-A [4] was “did not affect the enzyme activity”. Also, in the assay on PTP-A [1], the “Cleavage of protein by PTP-A (in words)” value is on record as “nor were they cleaved by PTP-A”.
On to `Cl.NCCc1ccc(S(=O)(=O)F)cc1` [PEFABLOC SC, 4-(2-aminoethyl)-benzenesulfonyl-fluoride hydrochloride], for which, in the assay on PTP-A [4], the “Effect” value is recorded as “total loss of activity” and the “Residual activity of PTP-A, %” value was 56%. Also, the “Residual activity of DPP IV, %” value in the assay with DPP IV [5] is 100%. In the assay with P. gingivalis (Pefabloc added at 0.5 mg/ml when the optical density began to increase), the “P. gingivalis growth (OD600)” value is listed as “decreased growth”. Further, in the assay with P. gingivalis (Pefabloc added at 2.0 mg/ml when the optical density began to increase), the “P. gingivalis growth (OD600)” value is recorded as “decreased growth”. In addition, the “Growth of P. gingivalis” value with P. gingivalis (treatment of cultures in lagphase and early logarithmic growth) is given as “inhibits growth”.
Turning to “H-Gly-Val-Pro-↓-Lys-Thr-His-Leu-Glu-Leu (GVPKTHLEL) [Peptide 15]”, the “Cleavage site mediated by PTP-A” value in the assay on PTP-A [2] was “H-Gly-Val-Pro-↓-Lys-Thr-His-Leu-Glu-Leu”.
H-YRPPGFSPFR [Peptide 4]: the “Cleavage of peptide by PTP-A (in words)” value in the assay with PTP-A [2] is recorded as “significant exception”.
